ChEMBL document CHEMBL1136870, “Synthesis of aristolactam analogues and evaluation of their antitumor activity” (2009)

Key:
Assay type in all cases: functional
SK-OV-3 = experiment: Antiproliferative activity against human SKOV3 cells by SRB assay
BT-474 = experiment: Antiproliferative activity against human BT474 cells by SRB assay
MDA-MB-231 = experiment: Antiproliferative activity against human MDA-MB-231 cells by SRB assay
A-431 = experiment: Antiproliferative activity against human A431 cells by SRB assay
HCT-15 = experiment: Antiproliferative activity against human HCT15 cells by SRB assay
A549 = experiment: Antiproliferative activity against human A549 cells by SRB assay
[1] = Antiproliferative activity against multidrug resistant human HCT15/CLO2 cells by SRB assay; settings: HCT-15
[2] = Antiproliferative activity against human MESSA cells by SRB assay; settings: MES-SA
[3] = Antiproliferative activity against multidrug resistant human MES-SA/Dx5 cells by SRB assay

GI50 (SK-OV-3) [µM]	GI50 (BT-474) [µM]	GI50 (MDA-MB-231) [µM]	GI50 (A-431) [µM]	GI50 (HCT-15) [µM]	GI50 (A549) [µM]	SMILES	GI50 [1] [µM]	GI50 [2] [nM]	GI50 [3] [µM]
13.4	12.8	> 30	23.7	–	–	COc1cc2c3c(cc4ccccc4c3c1OC)N(CCc1ccccc1)C2=O	–	–	–
3.42	–	–	5.75	8.47	–	COc1cc2c3c(cc4ccccc4c3c1OC)N(C)C2=O	8.61	3840	9.52
–	–	–	–	1.53	–	COc1cc2c3c(cc4ccc(C)cc4c3c1OC)N(C)C2=O	1.46	> 30000	> 30
> 30	> 30	> 30	> 30	–	–	C#CCN1C(=O)c2cc(OC)c(OC)c3c2c1cc1ccccc13	–	–	–
23.8	> 30	> 30	> 30	–	–	COc1cc2c3c(cc4ccccc4c3c1OC)N(Cc1cccs1)C2=O	–	–	–
16.2	23.7	> 30	32.5	–	–	COc1ccc(N2C(=O)c3cc(OC)c(OC)c4c3c2cc2ccccc24)cc1	–	–	–
24.2	23	> 30	27.1	–	–	COc1cc2c3c(cc4ccccc4c3c1OC)N(CC1CC1)C2=O	–	–	–
9.94	–	–	> 30	–	–	COc1cc2c3c(cc4ccccc4c3c1OC)N(Cc1ccncc1)C2=O	–	–	–
0.95	–	–	1.29	1.73	0.95	COc1cc2c3c(cc4ccccc4c3c1OC)N(CCN1CCCCC1)C2=O	1.58	1460	1.51
5.45	4.16	9.37	10.9	–	–	CCN1C(=O)c2cc(OC)c(OC)c3c2c1cc1ccccc13	–	–	–
19.4	20.6	> 30	> 30	–	–	COc1cc2c3c(cc4ccccc4c3c1OC)N(C(C)C)C2=O	–	–	–
24.3	22.5	> 30	> 30	–	–	COCCN1C(=O)c2cc(OC)c(OC)c3c2c1cc1ccccc13	–	–	–
5.49	–	–	4.64	–	–	COc1cc2c3c(cc4ccccc4c3c1OC)N(CCN1CCOCC1)C2=O	–	–	–
–	–	–	–	> 30	–	COc1cc2c3c(cc4ccccc4c3c1OC)NC2=O [CEPHARANONE B]	> 30	> 30000	> 30
–	–	–	–	12.8	–	COc1cc2c3c(cc4ccccc4c3c1O)N(C)C2=O [N-METHYL PIPEROLACTAM A]	10.8	14500	14.5
–	–	–	–	4.1	–	COc1c(O)cc2c3c(cc4ccccc4c13)N(C)C2=O [SAURISTOLACTAM]	4.38	23800	23.1

Second part, the compound before the results:

SMILES	GI50 (SK-OV-3) [µM]	GI50 (BT-474) [µM]	GI50 (MDA-MB-231) [µM]	GI50 (A-431) [µM]	GI50 (HCT-15) [µM]	GI50 (A549) [µM]	GI50 [1] [µM]	GI50 [2] [nM]	GI50 [3] [µM]
Cc1c2c3c(cccc3c3ccccc13)C(=O)N2C	13.1	–	–	2.83	3.79	1.62	–	–	–
COc1cc2c3c(c(C)c4ccccc4c3c1OC)N(CCN1CCCCC1)C2=O	0.33	–	–	0.18	0.27	0.18	–	–	–
COc1cc2c3c(cc4cc5c(cc4c3c1OC)OCO5)N(C)C2=O	–	–	–	–	5.93	–	1.64	27100	18.9
COc1cc2c3c(cc4cc(Cl)ccc4c3c1OC)N(C)C2=O	–	–	–	–	2.94	–	17.9	> 30000	> 30
COc1cc2c3c(cc4c5c(ccc4c3c1OC)OCO5)N(CCN1CCCCC1)C2=O	< 0.1	–	–	< 0.1	0.1	< 0.1	0.14	< 100	< 0.1
COc1cc2c3c(cc4cc(Cl)ccc4c3c1OC)N(CCN1CCCCC1)C2=O	0.91	–	–	0.18	0.92	0.26	0.83	590	0.61
COc1cc2cc3c4c(cc(OC)c(OC)c4c2cc1OC)C(=O)N3CCN1CCCCC1	1.71	–	–	1.19	4.22	1.54	–	–	–
COc1ccc2c(c1)cc1c3c(cc(OC)c(OC)c32)C(=O)N1C	–	–	–	–	0.3	–	0.16	1220	0.76
CN1C(=O)c2cccc3c2c1cc1ccccc13	4.26	–	–	8.02	4.21	1.54	5.72	1810	3.56
COc1cc2c3c(c(C)c4ccccc4c3c1OC)N(C)C2=O	> 30	–	–	> 30	–	–	–	–	–
COc1cc2c3c(cc4c5c(ccc4c3c1OC)OCO5)N(CCN(C)C)C2=O	< 0.1	–	–	< 0.0001	< 0.0001	< 0.1	0.0095	< 0.1	< 0.0001
COc1cc2cc3c4c(cc(OC)c(OC)c4c2cc1OC)C(=O)N3C	–	–	–	–	0.06	–	0.07	1050	1.01
COc1cc2c3c(cc4ccccc4c3c1OC)N(c1ccc(C(C)(C)C)cc1)C2=O	6.04	11.1	18.2	3.51	–	–	–	–	–
COc1ccc2cc3c4c(cc(OC)c(OC)c4c2c1)C(=O)N3CCN1CCCCC1	6.72	–	–	2.95	5.91	4.1	–	–	–
COc1cc2cc3c4c(cc(OC)c(OC)c4c2cc1OC)C(=O)N3CCN(C)C	0.33	–	–	0.15	0.72	0.19	0.57	390	0.51
COc1ccc2cc3c4c(cc(OC)c(OC)c4c2c1)C(=O)N3 [ARISTOLACTAM BIII]	–	–	–	–	3.74	–	3.35	2700	2.82
COc1cccc2c1C(=O)c1c(O)c3c(c(O)c1C2=O)C[C@@](O)(C(=O)CO)C[C@@H]3O[C@H]1C[C@H](N)[C@H](O)[C@H](C)O1 [DOXORUBICIN]	0.021	–	–	0.0012	0.19	0.003	7.92	5.1	0.93
COc1cc([C@@H]2c3cc4c(cc3[C@@H](O[C@@H]3O[C@@H]5CO[C@@H](C)O[C@H]5[C@H](O)[C@H]3O)[C@H]3COC(=O)[C@H]23)OCO4)cc(OC)c1O [ETOPOSIDE]	–	–	–	–	1.25	–	10	210	9.72
CC(=O)O[C@H]1C(=O)[C@@]2(C)[C@H]([C@H](OC(=O)c3ccccc3)[C@]3(O)C[C@H](OC(=O)[C@H](O)[C@@H](NC(=O)c4ccccc4)c4ccccc4)C(C)=C1C3(C)C)[C@]1(OC(C)=O)CO[C@@H]1C[C@@H]2O [PACLITAXEL]	–	–	–	< 1e-05	0.011	–	0.83	< 0.01	0.16
COc1cc2c3c(cc4ccccc4c3c1O)NC2=O [PIPEROLACTAM A]	–	–	–	–	> 30	–	> 30	> 30000	27
